This test has as its system T1, EPSPS (5-enolpyruvylshikimate-3-phosphate synthase), glyphosate-resistant (R) population.
T1 construct: native enzyme in leaf extract (total soluble protein) of R plants, not recombinant; no target-site substitution at codons 101, 102, 103, 106, 144, 192; homoeologous copies not resolved
Kind of test: phosphate release, EnzChek Phosphate Assay Kit, […] nm, leaf extract. The format is biochemical, Bromus catharticus. Particulars: substrates phosphoenolpyruvate and shikimate-3-phosphate; glyphosate 0 to 5,000 μM; Figure 6 legend fit prints 0.16; read-out: I50.

For `O=C(O)CNCP(=O)(O)O` [glyphosate, N-phosphonomethyl glycine], the IC50 amounted to 150 nM.

Values taken from publication PMC7930564, “First Case of Glyphosate Resistance in Bromus catharticus Vahl.: Examination of Endowing Resistance Mechanisms” (Frontiers in Plant Science, 2021).
